# Read-outs that look alike come from different tables or passages of the source.
# How the values were obtained:
# Male C57Bl/6J mice [1] = settings: previously demonstrated, cited from earlier work
# [2] = Pharmacokinetics of D-cycloserine in rodents (plasma, IP); format: in vivo, mice
# Method: For this study, male C57BL/6J mice (8 weeks old) from Jackson Laboratories (Bar Harbor, Me.) were used.
# For each treatment group a total of 12 mice were dosed: 4 mice were collected at 30, 60 and 120 min. Mean plasma level was computed over this time period.
# [3] = acidic gastric conditions, gastric emptying up to 3 hours; cited from earlier work
# [4] = Pharmacokinetics of D-cycloserine in humans (literature)
# Male BalbC/J mice = test: Rodent forced swim test (FST), immobility time; format: in vivo
# Text: Male BalbC/J mice (8 weeks old) from Jackson Laboratories (Bar Harbor, Me.) were used. Upon receipt, mice were assigned unique identification numbers (tail marked) and were group housed in OPTImice cages. All animals were acclimated to the colony room for 1 week prior to testing. During the period of acclimation, animals were examined on a regular basis, handled, and weighed to assure adequate health and suitability. Animals were maintained on a 12/12 light/dark cycle. The room temperature was maintained between 20 and 23° C. with a relative humidity maintained between 30% and 70%. Chow and water were provided ad libitum for the duration of the study. All testing was performed during the animal's light cycle phase.
# Mice were acclimated to the test room at least 1 hour prior to commencing the test. The forced swimming test consisted of one 6-minute session of forced swimming in individual opaque cylinders (15 cm tall×10 cm wide, 1000 ml beakers) containing fresh tap water at a temperature of 23±2° C. and a depth of 12 cm (approximately 800 ml) for each test animal. The time the animal spent immobile was recorded over the 6 min trial. Every 1 min the cumulative immobility time was recorded from the start of the session and noted on the study data record sheet. Immobility was defined as the postural position of floating in the water. The animals were generally observed with the back slightly hunched and the head above water with no movements or with small stabilizing movements of the limbs. After the swim test, each animal was placed in a pre-heated cage with a heating pad and allowed to dry.
# The main variable used to represent immobility in this test was the total time immobile during the 6-min test period. Statistics were performed by analysis of variance (ANOVA) with Dunnett post-hoc testing vs. the control condition or by t-test as appropriate.
# Sertraline, a known antidepressant, is used as a positive control.
# For this study, further NMDAR antagonist compounds were tested for their ability to reduce immobility time in the rodent FST test, indicative of potential anti-depressant effects, and further 5-HT2AR antagonists were tested for their ability to produce reductions of time spent in the open arms of the EPM, indicative to potential liability to induce anxiety, akathisia and suicidality in humans
# [5] = cited from earlier work; for Serum concentration: mean dose 8.8 mg/kg, patients (Hung et al.)
# Male C57Bl/6J mice [6] = test: Elevated plus maze (EPM), DOI 2 mg/kg in all conditions; format: in vivo; settings: for Distance Traveled Open (DTO) Mean / Percent open (PCT) Mean: Table 1
compound,measurement,setting,value
"N[C@@H]1CON=C1O [D-cycloserine, 3-Isoxazolidinone, 4-amino-, (4R)-(9CI)]","Distance travelled in the open arm and % time in the open arms, in words","Male C57Bl/6J mice [1]; DCS 300 mg/kg in combination with EMD281,014",numerical increases
same,"Distance travelled in the open arm and % time in the open arms, in words","Male C57Bl/6J mice [1]; DCS 300 mg/kg in the presence of MDL100,907",significantly increased
same,Mean plasma level over 30-120 min,"[2]; 30 mg/kg IP, mice",below 25 microgram/mL
same,Plasma levels over 30-120 min,"[2]; doses of 100 mg/kg or above IP, mice",greater than 25 microgram/mL
same,Maximum tolerated blood level,[2]; suggested from maximum tolerated dose,approximately 125 ug/mL
same,Hydrolysis of orally administered D-cycloserine during gastric emptying,[3],up to 50%
same,Sustained blood levels,"[4]; 500 mg/day, human PK studies",below 25 microgram/mL
same,"Sustained plasma level, median","[4]; corresponding to AUC over 24 hr, 500 mg (Zhu et al.)",8.9 microgram/mL
same,Human dose required to produce a serum level in excess of 25 microgram/mL,[4]; from dose-serum concentration relationship of Hung et al.,exceeding 10 mg/kg
same,"Effect on immobility in the forced swim test, in words",Male BalbC/J mice; DCS 30 mg/kg in combination with lurasidone,did not significantly reduce immobility
same,"Effect in the forced swim test assay, in words","Male BalbC/J mice; DCS 30 mg/kg, IP or PO (FIGS. 1 and 2)",no significant effect
same,"Effect in the forced swim test assay, in words","Male BalbC/J mice; DCS 100 mg/kg or above, PO or IP (FIGS. 1 and 2)",highly significant
same,"Effect on immobility in the forced swim test, in words",Male BalbC/J mice; DCS 300 mg/kg in combination with aripiprazole,did not significantly reduce immobility
same,"Effect on immobility in the forced swim test, in words",Male BalbC/J mice; DCS 300 mg/kg in combination with brexpiprazole,significantly reduced immobility
same,"Effect on immobility in the forced swim test, in words",Male BalbC/J mice; DCS 300 mg/kg in combination with lurasidone 0.2 to 3 mg/kg,significantly reduced immobility
same,Serum concentration,[5]; 2 hr after dosing,19.7 microgram/mL
same,Serum concentration,[5]; 6 hr after dosing,18.1 microgram/mL
same,"AUC over 24 hr, median","[5]; single 500 mg dose, fasting, humans (Zhu et al.)",214 microgram-hr/mL
same,"Reversal of the effects of MDL100,907 in the EPM, in words","Male C57Bl/6J mice [6]; DCS 300 mg/kg vs 30 mg/kg with MDL100,907 (Table 1 lines 6,7)","significantly reverses the effects of MDL100,907 at a dose of 300 mg/kg, but not 30 mg/kg"
same,"Effect in the EPM in the presence of aripiprazole, in words",Male C57Bl/6J mice [6]; DCS 300 mg/kg with aripiprazole 1 mg/kg,no significant effect
same,"Reversal of the effects of lurasidone in the EPM, in words",Male C57Bl/6J mice [6]; DCS 300 mg/kg with lurasidone 0.1-0.3 mg/kg,significantly reverses the effects of lurasidone
same,"Reversal of the effects of quetiapine in the EPM, in words",Male C57Bl/6J mice [6]; DCS 300 mg/kg with quetiapine 30 mg/kg,reversed at trend level
same,Distance Traveled Open (DTO) Mean,Male C57Bl/6J mice [6]; 30 mg/kg ip alone,295.8
same,Percent open (PCT) Mean,Male C57Bl/6J mice [6]; 30 mg/kg ip alone,44.6%
same,Distance Traveled Open (DTO) Mean,Male C57Bl/6J mice [6]; 300 mg/kg ip alone,287.5
same,Percent open (PCT) Mean,Male C57Bl/6J mice [6]; 300 mg/kg ip alone,45.4%
same,Mean distance travelled in the open arm of the EPM,"Male C57Bl/6J mice [6]; Table 6, 300 mg/kg, DOI 2 mg/kg added",369.70
same,"Effect on distance travelled in open arm / % time in open arm of EPM, in words","Male C57Bl/6J mice [6]; agent alone vs control, doses of Tables 1 and 2",selectively increases % time in open arms at a dose of 300 mg/kg but not at a dose of 30 mg/kg
